These results are taken from patent publication US20250228865A1, “COMPOUNDS FOR ENHANCING READ THROUGH OF GENES CONTAINING PREMATURE TERMINATION CODONS AND METHODS FOR MAKING AND USING THE SAME” (Sanofi US Services Inc., priority 2022, published 2025).

One experiment deals with CFTR R1162X. Put plainly: Functional CFTR channel activity, TECC-24 electrophysiology, 16HBE cells (CFTR R1162X readthrough). The experiment is classed as cell-based, human. Particulars: RTM 5 uM, G418 10 uM. How it is done: (§1) 16HBE human bronchial epithelial cells were seeded onto Transwell 24-well filter inserts coated with human collagen type IV. Cells were seeded 7 days prior to functional testing at a density of 1.7×10^5 cells onto the “apical” chamber filter of the Transwell insert. Cells were grown as submerged cultures (200 μL apical/700 μL basolateral) in Minimal Essential Medium (MEM) containing 10% qualified Fetal Bovine Serum and 1% Penicillin/Streptomycin and incubated at 37° C. and 5% CO2. Growth media on cells was replenished with fresh media every 1-3 days prior to test agent treatment day. After 7 days in culture, the CFTR-mediated chloride (Cl^−) equivalent current (Ieq) of the 16HBE cells was recorded, which may typically form electrically tight epithelia with a transepithelial resistance (Rt) of 2000-6000 Ω·cm2 as described below. Forty-eight hours prior to electrophysiological measurements, fresh growth media containing the test agents was applied to both chambers separating filter bound epithelial monolayer.
(§2) On the day of electrophysiology studies, electrodes of a “Multi-(24-channel) transepithelial current clamp amplifier” (MTECC-24 (TECC-24 for short), EP Devices, Belgium) were soaked in an assay buffer (see below for composition) for at least 2 hours using 24-well Transwell plates without inserts. Cell culture media was replaced in the Transwell assay plates with assay buffer (see below) and the plates were mounted onto a custom-built automated robotic assay platform (Yamaha RCX240S controller) with heated plate holders set at 37° C. for 60 min. After equilibration, transepithelial potential difference (PD) and resistance (Rt) was monitoredat ˜5 min intervals using the TECC-24 transepithelial current clamp. Electrode potential differences were monitored for each pair of Ag/AgCl voltage electrodes by taking voltage measurements from a control (“blank”) plate with matching buffer solutions and 16HBE cells that were not treated with any test agent. PD values for each electrode pair were subtracted from the blank plate from that of the test plates at each time point. Ieq was calculated from the corrected PD values and Rt using Ohm's law. Ieq values were slope corrected to account for measurement drift over time using the equation: Slope corrected value=calculated Ieq−((time x slope)+y-intercept) with the slope and y-intercept calculated from the data points captured during the initial baseline period and following addition of the CFTR inhibitor.
(§3) The equivalent current (Ieq) traces associated with CFTR channel activation were plotted as baseline subtracted mean±standard deviation from 3-4 separate wells on the 24-well Transwell (n=3-4). There are 4 recording periods, with the first set of data points recorded baseline Ieq currents prior to sequential activation of available CFTR channels with forskolin (10 μM) and then in combination with potentiator VX-770/ivacaftor (1 μM). Recorded the last set of data points in the presence of CFTR inhibitor CFTRinh-172 (20 μM) to confirm that currents are mediated via activation of CFTR channels. The test agents and control/reference compounds were pre-diluted to 10-fold concentrations in assay buffer and added manually using a multi-channel pipette to both the basolateral and apical side of the membrane (test plates only). Employed CFTR-mediated changes in Ieq, (i.e. forskolin/VX-770 activated currents) to measure functional CFTR surface expression or treatment-related functional rescue of mutant CFTR.
(§4) The magnitude of test agent mediated enhancement of functional CFTR currents was calculated by comparing forskolin/VX-770 stimulated Ieq relative to baseline/CFTRinh-172 Ieq following 48 hour pretreatment with test agent(s) and normalizing to the forskolin/VX-770 stimulated Ieq determined following 48 hour pretreatment with a maximally effective concentration a reference control aminoglycoside agent (typically 110 μM G418). […]

In a further experiment the test system is CFTR G542X. Put plainly: Functional CFTR channel activity, TECC-24 electrophysiology, 16HBE cells (CFTR G542X readthrough). The experiment is classed as cell-based, human. On the procedure:
as §1, §2, §3, §4

[1] abbreviates: eRF3 modulator (CC-90009) 10 uM.
Where [2] appears, read: RTM 1 uM, no eRF3 modulator, ELX-02 100 uM.
Where [3] appears, read: RTM conc. —, eRF3 modulator (CC-90009) 1 uM, ELX-02 100 uM.
The mark [4] stands for this setting: RTM 1 uM, eRF3 modulator (CC-90009) 1 uM, ELX-02 100 uM.

For `O=C1O[C@H](CO)CN1c1ccc(OCc2c(Cl)cccc2Cl)cc1` [drawing 818], in the experiment with CFTR R1162X (setting [1]), the “Currents (% of 110 μM G418 (Max effect))” value is recorded as 314 % of 110 μM G418 (Max effect).
In the case of `O=C1O[C@@H](CO)CN1c1ccc(OCc2c(Cl)cccc2Cl)cc1` [drawing 819], the “Currents (% of 110 μM G418 (Max effect))” value in the experiment on CFTR R1162X (no eRF3 modulator) is 81 % of 110 μM G418 (Max effect).
Consider `O=C1O[C@@H](CO)CN1c1ccc(OCc2c(Cl)cccc2Cl)cc1` [drawing 820], for which, in the experiment with CFTR R1162X (setting [1]), the “Currents (% of 110 μM G418 (Max effect))” value is 320 % of 110 μM G418 (Max effect).
With `OCc1cn(-c2ncc(OCc3c(Cl)cccc3Cl)cn2)cn1` [drawing 821], the “Currents (% of 110 μM G418 (Max effect))” value in the experiment on CFTR G542X (RTM 0.5 uM, no eRF3 modulator, G418 10 uM) is reported as 78 % of 110 μM G418 (Max effect).
For `OCc1cn(-c2ncc(OCc3c(Cl)cccc3Cl)cn2)cn1` [drawing 822], the “Currents (% of 110 μM G418 (Max effect))” value in the experiment with CFTR G542X (RTM 0.5 uM, eRF3 modulator (CC-90009) 1 uM, G418 10 uM) is recorded as 429 % of 110 μM G418 (Max effect).
With `OCc1cn(-c2ncc(OCc3c(Cl)cccc3Cl)cn2)cn1` [drawing 823], in the experiment on CFTR G542X (RTM 0.5 uM, no eRF3 modulator, ELX-02 100 uM), the “Currents (% of 110 μM G418 (Max effect))” value is reported as 50 % of 110 μM G418 (Max effect).
In the case of `OCc1cn(-c2ncc(OCc3c(Cl)cccc3Cl)cn2)cn1` [drawing 824], the “Currents (% of 110 μM G418 (Max effect))” value in the experiment with CFTR G542X (RTM 0.5 uM, eRF3 modulator (CC-90009) 1 uM, ELX-02 100 uM) was 421 % of 110 μM G418 (Max effect).
Take `OCc1ccn(-c2ncc(OCc3c(Cl)cccc3Cl)cn2)n1` [drawing 825]: the “Currents (% of 110 μM G418 (Max effect))” value in the experiment on CFTR G542X (setting [2]) is given as 94 % of 110 μM G418 (Max effect).
In the case of `OCc1ccn(-c2ncc(OCc3c(Cl)cccc3Cl)cn2)n1` [drawing 826], the “Currents (% of 110 μM G418 (Max effect))” value with CFTR G542X (setting [3]) was 83 % of 110 μM G418 (Max effect).
With `OCc1ccn(-c2ncc(OCc3c(Cl)cccc3Cl)cn2)n1` [drawing 827], the “Currents (% of 110 μM G418 (Max effect))” value in the experiment on CFTR G542X (setting [4]) is on record as 278 % of 110 μM G418 (Max effect).
On to `Cc1cccc(C(F)(F)F)c1COc1ccc(-c2nc(CO)n[nH]2)cc1` [drawing 828], for which the “Currents (% of 110 μM G418 (Max effect))” value in the experiment on CFTR G542X (setting [2]) is reported as 109 % of 110 μM G418 (Max effect).
On to `Cc1cccc(C(F)(F)F)c1COc1ccc(-c2nc(CO)n[nH]2)cc1` [drawing 829], for which the “Currents (% of 110 μM G418 (Max effect))” value in the experiment with CFTR G542X (setting [3]) was 83 % of 110 μM G418 (Max effect).
Take `Cc1cccc(C(F)(F)F)c1COc1ccc(-c2nc(CO)n[nH]2)cc1` [drawing 830]: the “Currents (% of 110 μM G418 (Max effect))” value in the experiment with CFTR G542X (setting [4]) is listed as 263 % of 110 μM G418 (Max effect).
On to `O=C1N[C@H](CO)CN1c1ccc(OCc2c(Cl)cccc2Cl)cn1` [drawing 831], for which the “Currents (% of 110 μM G418 (Max effect))” value in the experiment with CFTR G542X (setting [2]) is recorded as 79 % of 110 μM G418 (Max effect).
As for `O=C1N[C@H](CO)CN1c1ccc(OCc2c(Cl)cccc2Cl)cn1` [drawing 832], the “Currents (% of 110 μM G418 (Max effect))” value with CFTR G542X (setting [3]) is listed as 83 % of 110 μM G418 (Max effect).
`O=C1N[C@H](CO)CN1c1ccc(OCc2c(Cl)cccc2Cl)cn1` [drawing 833]: in the experiment with CFTR G542X (setting [4]), the “Currents (% of 110 μM G418 (Max effect))” value is given as 293 % of 110 μM G418 (Max effect).
Regarding `OCc1ncn(-c2ncc(OCc3c(Cl)cccc3C(F)(F)F)cn2)n1` [drawing 834], the “Currents (% of 110 μM G418 (Max effect))” value in the experiment on CFTR G542X (RTM 3 uM, no eRF3 modulator, ELX-02 100 uM) is 111 % of 110 μM G418 (Max effect).
For `OCc1ncn(-c2ncc(OCc3c(Cl)cccc3C(F)(F)F)cn2)n1` [drawing 835], in the experiment on CFTR G542X (setting [3]), the “Currents (% of 110 μM G418 (Max effect))” value was 60 % of 110 μM G418 (Max effect).
`OCc1ncn(-c2ncc(OCc3c(Cl)cccc3C(F)(F)F)cn2)n1` [drawing 836]: in the experiment with CFTR G542X (RTM 3 uM, eRF3 modulator (CC-90009) 1 uM, ELX-02 100 uM), the “Currents (% of 110 μM G418 (Max effect))” value is 263 % of 110 μM G418 (Max effect).
On to `OCc1cn(-c2ncc(OCc3c(Cl)cccc3Cl)cn2)cn1` [drawing 837], for which the “Currents (% of 110 μM G418 (Max effect))” value in the experiment on CFTR G542X (RTM 0.5 uM, no eRF3 modulator, Paramomycin 2000 uM) is recorded as 5 % of 110 μM G418 (Max effect).
Turning to `OCc1cn(-c2ncc(OCc3c(Cl)cccc3Cl)cn2)cn1` [drawing 838], the “Currents (% of 110 μM G418 (Max effect))” value with CFTR G542X (RTM 0.5 uM, eRF3 modulator (CC-90009) 1 uM, Paramomycin 2000 uM) is reported as 140 % of 110 μM G418 (Max effect).
As for `Cc1cccc(C(F)(F)F)c1COc1ccc(N2CC(CO)OC2=O)cc1` (stereo not shown) [drawing 839], the “Currents (% of 110 μM G418 (Max effect))” value with CFTR G542X (RTM 1 uM, no eRF3 modulator, G418 10 uM) is on record as 76 % of 110 μM G418 (Max effect).
